How the values were obtained:
pigweed = assay: Test A preemergence; format: in vivo, Amaranthus retroflexus; details: preemergence; for Pigweed plant response rating (0 to 100 scale): visual injury approx. 10 days after treatment
Outline: (§1)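 Greenhouse test in loam soil/sand blend; compounds formulated in non-phytotoxic solvent with surfactant, applied as preemergence directed soil spray or postemergence to plants 2–10 cm tall at one- to two-leaf stage. Injury rated visually versus untreated controls after approximately 10 days on a 0 (no effect) to 100 (complete control) scale.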

barnyardgrass = assay: Test B flood; format: in vivo, Echinochloa crus-galli; details: 250 g ai/ha, visual rating on 0 to 100 scale (0 no effect, 100 complete control), 13 to 15 days
Outline: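 Plants were grown to the 2-leaf stage and pots flooded to 3 cm above soil. Compounds were applied directly into the paddy water, with depth kept for the test. After 13–15 days in greenhouse, response was rated visually against controls on a 0 (no effect) to 100 (complete control) scale.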

ryegrass, Italian = assay: Test C preemergence; format: in vivo, Lolium multiflorum; details: for Ryegrass, Italian plant response rating / Plant response rating, Ryegrass, Italian: preemergence; for Plant response rating, Ryegrass, Italian: scale 0 to 100, 0 = no effect, 100 = complete control
From the text: (§2) Seeds of plant species selected from blackgrass (Alopecurus myosuroides), ryegrass, Italian (Italian ryegrass, Lolium multiflorum), wheat (winter wheat, Triticum aestivum), galium (catchweed bedstraw, Galium aparine), corn (Zea mays), crabgrass, large (large crabgrass, Digitaria sanguinalis), foxtail, giant (giant foxtail, Setaria faberii), johnsongrass (Sorghum halepense), lambsquarters (Chenopodium album), morningglory (Ipomoea coccinea), nutsedge, yellow (yellow nutsedge, Cyperus esculentus), pigweed (redroot pigweed, Amaranthus retroflexus), ragweed (common ragweed, Ambrosia elation), soybean (Glycine max), barnyardgrass (Echinochloa crus-galli), oilseed rape (Brassica napus), waterhemp (common waterhemp, Amaranthus rudis), oat, wild (wild oat, Avena fatua), kochia (Kochia scoparia), Surinam grass (Brachiaria decumbens), foxtail, green (green foxtail, Setaria viridis), goosegrass (Eleusine indica), bromegrass, downy (downy bromegrass, Bromus tectorum), nightshade (eastern black nightshade, Solanum ptycanthum), cocklebur (common cocklebur, Xanthium strumarium), cupgrass, woolly (woolly cupgrass, Eriochloa villosa), bermudagrass (Cynodon dactylon), sunflower, (common oilseed sunflower, Helianthus annuus), Russian thistle (Salsola kali), and velvetleaf (Abutilon theophrasti) were planted into a blend of loam soil and sand and treated preemergence with test chemicals formulated in a non-phytotoxic solvent mixture which included a surfactant.
(§3) At the same time, plants selected from these crop and weed species and also chickweed (common chickweed, Stellaria media), canarygrass (littleseed canarygrass, Phalaris minor), and deadnettle (henbit deadnettle, Lamium amplexicaule), were planted in pots containing Redi-Earth® planting medium (Scotts Company, 14111 Scottslawn Road, Marysville, Ohio 43041) comprising spaghnum peat moss, vermiculite, wetting agent and starter nutrients and treated with postemergence applications of test chemicals formulated in the same manner. Plants ranged in height from 2 to 18 cm (1- to 4-leaf stage) for postemergence treatments. Treated plants and controls were maintained in a greenhouse for 13 to 15 days, after which time all species were compared to controls and visually evaluated. Plant response ratings, summarized in Table C, are based on a scale of 0 to 100 where 0 is no effect and 100 is complete control. A dash (-) response means no test result.

wheat = assay: Test C preemergence; format: in vivo, Triticum aestivum; details: for Wheat plant response rating / Plant response rating, Wheat: preemergence; for Plant response rating, Wheat: scale 0 to 100, 0 = no effect, 100 = complete control
From the text: as §2, §3

galium = assay: Test C preemergence; format: in vivo, Galium aparine; details: for Galium plant response rating / Plant response rating, Galium: preemergence; for Plant response rating, Galium: scale 0 to 100, 0 = no effect, 100 = complete control
From the text: as §2, §3

oilseed rape = assay: Test C preemergence; format: in vivo, Brassica napus; details: for Oilseed Rape plant response rating / Plant response rating, Oilseed Rape: preemergence; for Plant response rating, Oilseed Rape: scale 0 to 100, 0 = no effect, 100 = complete control
From the text: as §2, §3

velvetleaf = assay: Test A preemergence; format: in vivo, Abutilon theophrasti; details: preemergence; for Velvetleaf plant response rating (0 to 100 scale): visual injury approx. 10 days after treatment
Outline: as §1

[1] = 125 g ai/ha, visual injury, 0 to 100 scale, approx. 10 days
[2] = 500 g ai/ha, visual injury after approx. 10 days, 0 to 100 scale (0 no effect, 100 complete control)
[3] = 31 g ai/ha, visual rating, scale 0 to 100 (0 no effect, 100 complete control), 13 to 15 days
[4] = 62 g ai/ha, scale 0 to 100 (0 no effect, 100 complete control), 13 to 15 days
[5] = 125 g ai/ha, scale 0 to 100, 0 is no effect, 100 is complete control
[6] = 250 g ai/ha, scale 0 to 100, 0 is no effect, 100 is complete control

Compound	Pigweed plant response rating (pigweed; [1])	Pigweed plant response rating (pigweed; [2])	Plant response rating, Barnyardgrass (barnyardgrass)	Ryegrass, Italian plant response rating (ryegrass, Italian; [3])	Ryegrass, Italian plant response rating (ryegrass, Italian; [4])	Wheat plant response rating (wheat; [3])	Wheat plant response rating (wheat; [4])	Galium plant response rating (galium; [3])	Galium plant response rating (galium; [4])	Oilseed Rape plant response rating (oilseed rape; [3])	Oilseed Rape plant response rating (oilseed rape; [4])	Velvetleaf plant response rating (velvetleaf; [2])	Plant response rating, Ryegrass, Italian (ryegrass, Italian; 125 g ai/ha, 13 to 15 days)	Ryegrass, Italian plant response rating (ryegrass, Italian; [6])	Plant response rating, Wheat (wheat; 125 g ai/ha, 13 to 15 days)	Wheat plant response rating (wheat; [6])	Plant response rating, Galium (galium; 125 g ai/ha, 13 to 15 days)	Galium plant response rating (galium; [6])	Plant response rating, Oilseed Rape (oilseed rape; 125 g ai/ha, 13 to 15 days)	Oilseed Rape plant response rating (oilseed rape; [6])	further results
CCONC(=O)c1cc(CC)n(Cc2cc(C(F)(F)F)no2)n1 [Compound 125]	100	100	20	0	30	0	0	80	85	30	60	–	–	–	–	–	–	–	–	–	Plant response rating (scale of 0 to 100), Ryegrass, Italian (ryegrass, Italian; Preemergence, 250 g ai/ha): 95; Ryegrass, Italian plant response rating (ryegrass, Italian; [5]): 20; Plant response rating (scale of 0 to 100), Wheat (wheat; Preemergence, 250 g ai/ha): 50; Wheat plant response rating (wheat; [5]): 5; Plant response rating (scale of 0 to 100), Galium (galium; Preemergence, 250 g ai/ha): 90; Galium plant response rating (galium; [5]): 100; Plant response rating (scale of 0 to 100), Oilseed Rape (oilseed rape; Preemergence, 250 g ai/ha): 95; Oilseed Rape plant response rating (oilseed rape; [5]): 95
O=C(NCC(F)(F)F)c1cc(CCCl)n(Cc2ccnc(C(F)(F)F)c2)n1 [Compound 143]	100	100	45	35	80	40	60	90	100	100	100	100	90	90	80	85	95	100	95	100	Velvetleaf plant response rating (velvetleaf; [1]): 50
CCCNC(=O)c1cc(CCCl)n(Cc2ccnc(C(F)(F)F)c2)n1 [Compound 145]	–	100	45	5	45	5	40	90	95	60	98	80	85	90	50	90	95	100	100	98	Pigweed plant response rating (0 to 100 scale) (pigweed; 125 g ai/ha): 100; Velvetleaf plant response rating (0 to 100 scale) (velvetleaf; 125 g ai/ha): 50
CCNC(=O)c1cc(CCCl)n(Cc2ccnc(C(F)(F)F)c2)n1 [Compound 179]	–	100	25	5	80	0	0	98	100	60	85	100	90	90	80	85	100	100	100	100	Pigweed plant response rating (0 to 100 scale) (pigweed; 125 g ai/ha): 100; Velvetleaf plant response rating (0 to 100 scale) (velvetleaf; 125 g ai/ha): 50

Reference: patent publication US20150105252A1, “SUBSTITUTED PYRAZOLES AS HERBICIDES” (E I DU PONT DE NEMOURS AND COMPANY, priority 2013, published 2015)
